# In patent US20030157088A1, “Compositions containing enzymes stabilized with inhibitors having certain binding properties and methods for using such compositions in personal care” (The Proctor & Gamble Company, priority 2001, published 2003):
# System: skin
# Settings: in vivo
row,Compound,irritation of the skin
1,"CCCCCCCCCCO[C@@H]1O[C@H](CO)[C@@H](O)[C@H](O)[C@H]1O [Decyl glucoside, decyl glucoside]",not increase irritation of the skin

# Biological target: subtilisin
# Type: biochemical
# Settings: approximate values; Ki=[E]*[I]/[EI]; read-out: inhibition constant (Ki)
# From the text: Typically a safe and effective amount will range from 0.00005% to 5%, preferably from 0.005% to 2%, more preferably from 0.025% to 1%. Ki values reported herein are approximate values and may be measured, e.g. using the method set forth in “Kinetcs of Subtilisin and Thiolsubtilisin“, Philipp, M. and Bender, M. L., Molecular & Cellular Biochemistry, vol. 51, pages 5-32 (1983). Another suitable method is set forth in “Protease Stabilization by Carboxylic Acid Salts: Relative Efficencies and Mechanisms,” Crossin, Michael C., J.A.O.C.S. vol. 66, no. 7, pages 1010-1014 (July 1989). […] The inhibition constant (Ki) is defined as the concentration of inhibitor required to inhibit an enzyme's activity by 50%, and may be represented as Ki=[E]*[I]/[EI], wherein E is enzyme, I is inhibitor, and EI is enzyme-inhibitor complex.
row,Compound,Ki
1,OB(O)O [boric acid],> 1000 µM
2,CCCCB(O)O [butylboronic acid],7200 µM
3,CC(=O)N[C@@H](CC(C)C)C(=O)N[C@@H](CC(C)C)C(=O)N[C@H](C=O)CCCNC(=N)N [leupeptide],230 µM
4,OB(O)c1ccccc1 [phenylboronic acid],160 µM
5,Streptomyces subtilisin inhibitor [Streptomyces subtilisin inhibitor (SSI)],< 0.001 µM
